Key:
[1] = test system: IL-17 in peritoneal macrophages; experiment: IL-17 release, mouse peritoneal macrophages, LPS; type: cell-based; details: Peritoneal macrophage, n = 2, read-out: IC50, IL-17 inhibition
Experimental: The peritoneal neutrophils or macrophages were isolated from C57BL/6 male mice or BALB/c female mice (6–8 wks; 18–22 g) injected with 3% or 4% thioglycollate broth. After 4 h or 4 days, RPMI medium was injected into the peritoneal cavity of mouse and peritoneal lavage was collected. The lavage was pooled and spun at 800 rpm for 10 min. The pellet was re-suspended in 1X Gey’s solution for 5 min followed by PBS wash. In case of neutrophils, the isolated cells were seeded in 48 well plate for 1.5 h. After 1.5 h, the supernatant containing peritoneal neutrophils were collected and centrifuged at 2000 rpm for 10 min and the pellet were re-suspended in 2% RPMI. In case of isolated peritoneal macrophages, the cells were seeded in 48 well plate for 3–4 h followed by PBS wash. Both the neutrophils and macrophages were treated with PCCR-1 in 2% RPMI for 1 h followed by stimulation with 10 µg/ml or 5 µg/ml of LPS for 18 h or 24 h. The supernatant collected for IL-17 estimation by ELISA.

[2] = test system: IL-17 release in human neutrophils; experiment: IL-17 release, human neutrophils, PMA + ionomycin; type: cell-based; details: Neutrophil, n = 4, read-out: potency, IL-17 release inhibition
Experimental: The human neutrophils were isolated by Ficoll-Hypaque by centrifugation of blood from healthy subjects at 700 g for 30 min, followed by erythrocyte lysis with distilled water for 30 s. Cells were washed in PBS and post 1 h treatment with PCCR-1, cells were stimulated with 50 ng/mL PMA and 2 µg/mL Ionomycin. After 18 h the supernatant was collected for IL-17 estimation by ELISA.

Ca Channel (L type) = experiment: Cerep panel, Ca channel (L type)
Text: (§1) Based on the homology of the ligand binding domains, 3 different isoforms of ROR (hRORα, hRORβ and hRORγ) are reported. Small variations in the LBD regions possibly lead to differences in competitive binding between the nuclear receptors of the ROR isoforms (Fig. 1b). Similar to the assessment of RORγ binding assay, TR-FRET binding assays were also used to assess the affinity of PCCR-1 for other ROR isoforms. […] This was reconfirmed in cellular functional assays for the selected isoforms and nuclear receptors using Gal4 DBD with luciferase reporter system from Indigo (PA, USA). […] In addition, both cellular agonist and antagonist effects as well as for enzyme activity were evaluated with a known reference compound for each target, using a radiolabeled method (Eurofins Cerep, France, Table 1).

RXR = experiment: TR-FRET selectivity binding assay, RXR
Text: as §1
(§2) For selectivity, the ROR isoforms RORα, FXR, LXRα, LXRβ, RXR, RARα were incubated with compound for 60 min at 22 °C followed by detection mix containing respective agonist (All trans retinoic acid for RARα, T0901317 for LXRα, LXRβ, 9-cis Retinoic acid for RXR, GW-4064 for FXR) and coactivator peptide (FD22 for RORα, PGC1α for RXR, RARα, TRAP220 for LXRα, LXRβ, SRC2-2 for FXR) and Tb-anti GST antibody prepared in assay buffer were added into a 384-well white plate. Reading taken after overnight incubation and the data analysis done as per the protocol mentioned in RORγt-LBD and co-activator ligand binding assay.

mouse RORγ LBD = molecular target: T1, mouse RORγ LBD (Mus musculus, UniProt P51450); experiment: RORγt-LBD co-activator ligand binding TR-FRET assay, mouse; details: n = 6
T1 construct: RORγt-LBD region 264-516aa; made in house
Text: To identify small molecule RORγ inhibitors, we conducted in vitro screening using a TR-FRET binding assay to determine the inhibition of RORγ with a series of different compounds. With extensive effort and from hit identification to lead optimization, PCCR-1 was identified[29] (Fig. 1A). Based on the homology of the ligand binding domains (LBD) between different ROR isoforms (hRORα, hRORβ and hRORγ), slight variations have been observed in the LBD regions which possibly lead to differences in competitive binding between the isoforms (Fig. 1B). Simultaneous binding of a tracer and antibody results in an increase in fluorescence resonance energy transfer (FRET), which decreases with displacement of the tracer upon inhibitor binding.
The human and mouse RORγt cDNA clones were obtained from OriGene (MD USA). […] The next day, plate was read on Infinite F500 reader (Magellan Tecan Switzerland). […] The percent activity of each dilution was determined as the ratio of background corrected signal to the background corrected signal of wells receiving only DMSO. IC50 values were determined by fitting percent inhibition data in GraphPad Prism (version-5.01) software.

LXRβ = test system: T2, LXRβ; experiment: TR-FRET selectivity binding assay, LXRβ
T2 construct: purchased Invitrogen
Text: as §1, §2

[3] = test system: Nuclear receptors (RORα, RARα, LXRα, LXRβ, RXR, FXR); experiment: Cerep panel, nuclear receptors: binding assays; parameters: key: NSE No significant effect; V wk very weak (very low-level agonist activity seen with mPPARγ); details: at 10 µM
Text: as §1

T1 sequence (P51450 264-516): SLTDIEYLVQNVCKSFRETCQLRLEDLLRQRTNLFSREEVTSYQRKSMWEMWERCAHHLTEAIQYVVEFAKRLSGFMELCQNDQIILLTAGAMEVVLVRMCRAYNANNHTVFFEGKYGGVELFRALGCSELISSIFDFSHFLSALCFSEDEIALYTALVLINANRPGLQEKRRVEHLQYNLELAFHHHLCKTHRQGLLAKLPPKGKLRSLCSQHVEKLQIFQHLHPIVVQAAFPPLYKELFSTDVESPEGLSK

Compound: CCn1c(C(C)(C)Oc2ccc(F)cc2F)nc2cc(NC(=O)Cc3ccc(S(=O)(=O)CC)cc3)ccc21 [PCCR-1]
- IC50 [1]: 1390 nM
- IC50 [2]: 3660 nM
- IC50 (Ca Channel (L type)): 2600 nM
- % Inhibition RXR (RXR; 1 µM): 0.00%
- % Inhibition RXR (RXR; 10 µM): 8.24%
- Fold over hRORγ, RXR (RXR; vs RORg IC50 31.87 nM): > 313.7 fold
- IC50 (mouse RORγ LBD): 778 nM
- % Inhibition LXRβ (LXRβ; 1 µM): 28.11%
- % Inhibition LXRβ (LXRβ; 10 µM): 46.66%
- Fold over hRORγ, LXRβ (LXRβ; vs RORg IC50 31.87 nM): > 313.7 fold
- Nuclear receptors: binding assays (RORα, RARα, LXRα, LXRβ, RXR, FXR) [3]: NSE at 10 µM

— publication PMC9130233, “An inhibitor of RORγ for chronic pulmonary obstructive disease treatment” (Scientific Reports, 2022)
